Among the data in ChEMBL document CHEMBL1145646, “New anti-inflammatory ergostane-type ecdysteroids from the sclerotium of Polyporus umbellatus” (2008) are ID50 values, retold here.

In the test the test system is Mus musculus. Nature of the test: Inhibition of TPA-induced inflammation in mouse assessed per ear by edema assay. Type of test: functional.
`C[C@@H]1[C@H]([C@@H](O)[C@](C)(O)[C@H]2CC[C@@]3(O)C4=CC(=O)[C@@H]5C[C@@H](O)[C@@H](O)C[C@]5(C)[C@H]4CC[C@]23C)OC[C@H]1C` [POLYPOROID B] had an ID50 of 0.682 µmol/ear.

Regarding `C=C(C[C@@H](O)[C@@H](C)[C@H]1CC[C@@]2(O)C3=CC(=O)[C@@H]4C[C@@H](O)[C@@H](O)C[C@]4(C)[C@H]3CC[C@]12C)C(C)C` [POLYPORUSTERONE G], the ID50 was found to be 0.207 µmol/ear.

On to `C=C(C[C@@H](O)[C@](C)(O)[C@H]1CC[C@@]2(O)C3=CC(=O)[C@@H]4C[C@@H](O)[C@@H](O)C[C@]4(C)[C@H]3CC[C@]12C)C(C)C` [POLYPORUSTERONE B], for which the ID50 came out at 0.117 µmol/ear.

As for `COc1ccc2c(c1)c(CC(=O)O)c(C)n2C(=O)c1ccc(Cl)cc1` [INDOMETHACIN], the ID50 stood at 0.838 µmol/ear.

`CC(C)C(C)/C=C/[C@@H](C)[C@H]1CC[C@H]2C3=C[C@@H](O)[C@@]4(O)C[C@@H](O)CC[C@]4(C)[C@H]3CC[C@]12C` (some centres undefined): the ID50 amounted to 0.666 µmol/ear.

Regarding `CC(C)C(C)C[C@@H](O)[C@](C)(O)[C@H]1CC[C@@]2(O)C3=CC(=O)[C@@H]4C[C@@H](O)[C@@H](O)C[C@]4(C)[C@H]3CC[C@]12C` (some centres undefined) [POLYPORUSTERONE A], the ID50 is 0.141 µmol/ear.

In turn, `CC(C)C(C)[C@H](O)[C@@H]1O[C@H]2C[C@@]3(O)C4=CC(=O)[C@@H]5C[C@@H](O)[C@@H](O)C[C@]5(C)[C@H]4CC[C@]3(C)[C@H]2[C@@]1(C)O` (some centres undefined) [POLYPOROID A] registered an ID50 of 0.531 µmol/ear.

Compound `CC(C)C(C)C[C@@H](O)[C@](C)(O)[C@H]1[C@@H](O)C[C@@]2(O)C3=CC(=O)[C@@H]4C[C@@H](O)[C@@H](O)C[C@]4(C)[C@H]3CC[C@]12C` (some centres undefined) [POLYPOROID C] registered an ID50 of 0.184 µmol/ear.

The compound `CC(C)C(C)C1O[C@H]1[C@](C)(O)[C@H]1CC[C@@]2(O)C3=CC(=O)[C@@H]4C[C@@H](O)[C@@H](O)C[C@]4(C)[C@H]3CC[C@]12C` (some centres undefined) [POLYPORUSTERONE C] yielded an ID50 of 0.289 µmol/ear.
